In the test the target is CCR5 chemokine receptor (Homo sapiens, UniProt P51681). Put plainly: Inhibition Data (IC50; no method described). Particulars: assay not described, read-out: Activity (*) (IC50 class).

pIC50: −log10 of the molar value. Bounds are passed on as bounds.

By pIC50 is commonly meant the negative decadic logarithm of the IC50, by convention in mol/L.

Sequence of CCR5 chemokine receptor (P51681 whole entry): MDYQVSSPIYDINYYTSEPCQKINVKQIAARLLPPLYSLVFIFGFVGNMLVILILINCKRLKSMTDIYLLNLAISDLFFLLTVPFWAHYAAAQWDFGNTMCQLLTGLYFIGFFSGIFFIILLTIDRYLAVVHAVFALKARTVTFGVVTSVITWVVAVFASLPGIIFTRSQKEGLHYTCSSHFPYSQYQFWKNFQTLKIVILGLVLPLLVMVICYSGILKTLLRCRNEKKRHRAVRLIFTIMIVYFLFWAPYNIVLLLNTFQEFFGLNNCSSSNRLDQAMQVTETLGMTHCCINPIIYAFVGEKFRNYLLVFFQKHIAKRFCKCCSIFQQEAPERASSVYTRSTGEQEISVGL

Consider `CN(C[C@@](C)(CCN1CCc2[nH][nH]c(=O)c2C1)c1ccccc1)S(=O)(=O)c1ccccc1` [Example 78], for which the pIC50 was over 6.00.
Then `C[C@H](NC(=O)N1CC2CN(CC[C@](C)(CN(C)S(=O)(=O)c3ccccc3)c3ccccc3)CC[C@H]2C1)c1cccc2ccccc12` (stereo partly drawn) [Example 79], with over 6.00.
Consider `Cc1nnc(C2CO[C@H]3OCCC23)n1C1CC2CCC(C1)N2CC[C@H](NC(=O)OCc1ccccc1)c1ccccc1` (stereo partly drawn) [Example 80], for which the pIC50 was over 7.00.
In the case of `Cc1nnc(C2CO[C@H]3OCCC23)n1C1CC2CCC(C1)N2CC[C@H](NS(=O)(=O)c1ccc2c(c1)OCO2)c1ccccc1` (stereo partly drawn) [Example 81], the pIC50 is over 6.00.
As to `Cc1nnc(C2CO[C@H]3OCCC23)n1C1CC2CCC(C1)N2CC[C@H](N)c1ccccc1` (stereo partly drawn) [Example 82], the pIC50 is over 6.00.
Then `Cc1ccc(S(=O)(=O)N[C@@H](CCN2C3CCC2CC(n2c(C)nnc2C2CO[C@H]4OCCC24)C3)c2ccccc2)cc1` (stereo partly drawn) [Example 83], with over 6.00.

The values above are taken from patent US9062057B2, “CCR5 antagonists for treating HIV” (Purdue Research Foundation, priority 2010, dated 2015).
